According to patent US20230151003A1, “COMPOUNDS AND METHODS OF USE” (Exelixis, Inc., priority 2020, published 2023):

Assays:
Assay type in all cases: cell-based
KDR = KDR (Homo sapiens, UniProt P35968); assay: KDR autophosphorylation ELISA in HUVEC cells; parameters: endogenous in cells; host or cells: HUVEC (Lonza #C2519A); conditions: Table 3 Cellular Activities, VEGF165-stimulated, phospho-KDR ELISA
Experimental: Human umbilical vein endothelial cells or HUVEC (Lonza #C2519A) were seeded at 2×10^4 cells/well onto 96-well plates (Corning #3904), in EGM-2 growth medium (Lonza #CC-3162) containing 1% Penicillin Streptomycin (Thermo Fisher #15140-122). HUVEC cells were incubated at 37° C., 5% CO2 for 24 h and then starved for 24 h in serum-free EBM-2 basal medium (Lonza #CC-3156) containing 1% Penicillin Streptomycin. Test compounds were serially diluted to produce an 8-point dose curve in fresh serum-free medium to a final concentration of 0.3% DMSO (vehicle) and added to the cells and incubated for 1 h. Cells were then stimulated with 100 ng/mL recombinant human VEGF165 (R&D Systems #293-VE-500) for 5 min, washed with cold PBS, and immediately lysed with 130 μL of cold 1× lysis buffer [20 mM Tris, 137 mM sodium chloride, 2 mM EDTA, 10% glycerol, 1% NP-40 alternative, 1 mM activated sodium orthovanadate, 1 mM PefaBloc SC (Sigma-Aldrich #11429868001), protease/phosphatase inhibitor tablet (Thermo Fisher #A32959)]. Lysates were collected and 100 μL/well added into the human phospho-KDR DuoSet IC ELISA (R&D Systems #DYC1766-2). Assay was performed according to manufacturer's instructions and sample phospho-KDR concentrations were extrapolated using human phospho-KDR control (R&D Systems #841421) as a standard. Positive control wells (100% activity) contained VEGF165-stimulated, DMSO-treated cell lysates. Negative control wells (0% activity) contained non-stimulated cell lysates. IC50 values were calculated by nonlinear regression analysis using a 4-parameter logistic curve fit in ActivityBase XE (IDBS).

Mer = target: T1, Mer (Homo sapiens, UniProt Q12866); assay: Mer autophosphorylation ELISA in transient transfected 293A cells; conditions: Table 3 Cellular Activities; MERTK-transfected 293A cells, phospho-Mer ELISA
T1 construct: host or cells: 293A cells (Thermo Fisher #R70507)
T1 sequence (Q12866 21-999): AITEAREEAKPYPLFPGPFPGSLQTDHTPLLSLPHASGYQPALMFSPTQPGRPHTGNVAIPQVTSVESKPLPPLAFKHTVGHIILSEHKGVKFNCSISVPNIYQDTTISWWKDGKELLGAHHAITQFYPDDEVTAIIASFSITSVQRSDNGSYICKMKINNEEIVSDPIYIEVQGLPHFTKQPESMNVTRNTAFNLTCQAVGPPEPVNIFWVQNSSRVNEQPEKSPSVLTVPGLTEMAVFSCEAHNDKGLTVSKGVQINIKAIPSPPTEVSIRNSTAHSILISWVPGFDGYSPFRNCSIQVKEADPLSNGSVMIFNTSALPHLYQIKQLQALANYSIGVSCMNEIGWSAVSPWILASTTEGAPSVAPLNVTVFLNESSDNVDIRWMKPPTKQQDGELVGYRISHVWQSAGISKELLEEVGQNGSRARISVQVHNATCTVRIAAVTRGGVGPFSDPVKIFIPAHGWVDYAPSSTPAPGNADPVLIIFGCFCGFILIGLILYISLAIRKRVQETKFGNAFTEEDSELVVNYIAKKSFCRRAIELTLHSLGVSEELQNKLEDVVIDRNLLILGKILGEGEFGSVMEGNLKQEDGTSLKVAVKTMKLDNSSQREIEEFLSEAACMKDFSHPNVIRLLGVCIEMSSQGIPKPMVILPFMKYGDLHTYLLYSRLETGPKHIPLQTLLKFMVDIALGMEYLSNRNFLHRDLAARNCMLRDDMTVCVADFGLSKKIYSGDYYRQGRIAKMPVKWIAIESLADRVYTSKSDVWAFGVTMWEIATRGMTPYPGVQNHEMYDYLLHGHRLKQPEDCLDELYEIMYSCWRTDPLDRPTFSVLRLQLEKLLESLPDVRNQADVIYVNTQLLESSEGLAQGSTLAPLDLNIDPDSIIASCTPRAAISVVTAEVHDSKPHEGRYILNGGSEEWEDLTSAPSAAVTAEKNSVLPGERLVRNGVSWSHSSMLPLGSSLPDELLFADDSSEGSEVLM
Experimental: 293A cells (Thermo Fisher #R70507) were seeded at 1.5×10^6 cells/well onto 100 mm dish (Greiner #664169), in DMEM (Thermo Fisher #11995-040) containing 10% FBS (Thermo Fisher #26140-079), 1% MEM NEAA (Thermo Fisher #11140-050), 1% GlutaMax (Thermo Fisher #35050-061), and 1% Penicillin Streptomycin (Thermo Fisher #15140-122). 293A cells were incubated at 37° C., 5% CO2 for 24 h and then transfected with 6μg MERTK DNA (Genecopoeia #EX-Z8208-M02) using TransIT LT1 transfection reagent (Mirus-Bio #MIR2305). After 24 h incubation, the transfected 293A cells were seeded at 1×10^5 cells/well onto 96-well plates (Corning #3904) in DMEM growth medium overnight. Test compounds were serially diluted to produce an 8-point dose curve in fresh serum-free medium to a final concentration of 0.3% DMSO (vehicle) and added to the cells and incubated for 1 h. Cells were then immediately lysed with 150 μL of cold 1× lysis buffer […], 137 mM sodium chloride, 2 mM EDTA, 10% glycerol, 1% NP-40 alternative, 1 mM activated sodium orthovanadate, 1 mM PefaBloc SC (Sigma-Aldrich #11429868001), protease/phosphatase inhibitor tablet (Thermo Fisher #A32959)]. Lysates were clarified by centrifugation and 50 μL/well added into the human phospho-Mer DuoSet IC ELISA (R&D Systems #DYC2579-2). Assay was performed according to manufacturer's instructions and sample phospho-Mer concentrations were extrapolated using human phospho-Mer control (R&D Systems #841793) as a standard. Positive control wells (100% activity) contained DMSO-treated cell lysates. Negative control wells (0% activity) contained reference inhibitor-treated cell lysates. IC50 values were calculated by nonlinear regression analysis using a 4-parameter logistic curve fit in ActivityBase XE (IDBS).

Met = Met (Homo sapiens, UniProt P08581); assay: Met autophosphorylation ELISA in PC-3 cells; parameters: endogenous in cells; host or cells: PC-3 prostate cancer cells (ATCC #CRL-1435); conditions: Table 3 Cellular Activities, HGF-stimulated, phospho-Met ELISA, read-out: c-Met IC50
Experimental: PC-3 prostate cancer cells (ATCC #CRL-1435) were seeded at 4×10^4 cells/well onto 24-well plates (Greiner #662165), in DMEM (Thermo Fisher #11995-040) containing 10% FBS (Thermo Fisher #26140-079), 1% MEM NEAA (Thermo Fisher #11140-050), 1% GlutaMax (Thermo Fisher #35050-061), and 1% Penicillin Streptomycin (Thermo Fisher #15140-122). PC-3 cells were incubated at 37° C., 5% CO2 for 24 h and then starved for 3 h in serum-free medium. Test compounds were serially diluted to produce an 8-point dose curve in fresh serum-free medium to a final concentration of 0.3% DMSO (vehicle) and added to the cells and incubated for 1 h. Cells were then stimulated with 100 ng/mL recombinant human HGF (R&D Systems #294-HG-250) for 10 min, washed with cold PBS, and immediately lysed with 130 μL of cold 1× lysis buffer [20 mM Tris, 137 mM sodium chloride, 2 mM EDTA, 10% glycerol, 1% NP-40 alternative, 1 mM activated sodium orthovanadate, 1 mM PefaBloc SC (Sigma-Aldrich #11429868001), protease/phosphatase inhibitor tablet (Thermo Fisher #A32959)]. Lysates were clarified by centrifugation and 100 μL/well added into the PathScan phospho-Met (panTyr) Sandwich ELISA (Cell Signaling Technology #7333). Assay was performed according to manufacturer's instructions. Positive control wells (100% activity) contained HGF-stimulated, DMSO-treated cell lysates. Negative control wells (0% activity) contained HGF-stimulated, reference inhibitor-treated cell lysates. IC50 values were calculated by nonlinear regression analysis using a 4-parameter logistic curve fit in ActivityBase XE (IDBS).

Sequence of KDR (P35968 20-1356): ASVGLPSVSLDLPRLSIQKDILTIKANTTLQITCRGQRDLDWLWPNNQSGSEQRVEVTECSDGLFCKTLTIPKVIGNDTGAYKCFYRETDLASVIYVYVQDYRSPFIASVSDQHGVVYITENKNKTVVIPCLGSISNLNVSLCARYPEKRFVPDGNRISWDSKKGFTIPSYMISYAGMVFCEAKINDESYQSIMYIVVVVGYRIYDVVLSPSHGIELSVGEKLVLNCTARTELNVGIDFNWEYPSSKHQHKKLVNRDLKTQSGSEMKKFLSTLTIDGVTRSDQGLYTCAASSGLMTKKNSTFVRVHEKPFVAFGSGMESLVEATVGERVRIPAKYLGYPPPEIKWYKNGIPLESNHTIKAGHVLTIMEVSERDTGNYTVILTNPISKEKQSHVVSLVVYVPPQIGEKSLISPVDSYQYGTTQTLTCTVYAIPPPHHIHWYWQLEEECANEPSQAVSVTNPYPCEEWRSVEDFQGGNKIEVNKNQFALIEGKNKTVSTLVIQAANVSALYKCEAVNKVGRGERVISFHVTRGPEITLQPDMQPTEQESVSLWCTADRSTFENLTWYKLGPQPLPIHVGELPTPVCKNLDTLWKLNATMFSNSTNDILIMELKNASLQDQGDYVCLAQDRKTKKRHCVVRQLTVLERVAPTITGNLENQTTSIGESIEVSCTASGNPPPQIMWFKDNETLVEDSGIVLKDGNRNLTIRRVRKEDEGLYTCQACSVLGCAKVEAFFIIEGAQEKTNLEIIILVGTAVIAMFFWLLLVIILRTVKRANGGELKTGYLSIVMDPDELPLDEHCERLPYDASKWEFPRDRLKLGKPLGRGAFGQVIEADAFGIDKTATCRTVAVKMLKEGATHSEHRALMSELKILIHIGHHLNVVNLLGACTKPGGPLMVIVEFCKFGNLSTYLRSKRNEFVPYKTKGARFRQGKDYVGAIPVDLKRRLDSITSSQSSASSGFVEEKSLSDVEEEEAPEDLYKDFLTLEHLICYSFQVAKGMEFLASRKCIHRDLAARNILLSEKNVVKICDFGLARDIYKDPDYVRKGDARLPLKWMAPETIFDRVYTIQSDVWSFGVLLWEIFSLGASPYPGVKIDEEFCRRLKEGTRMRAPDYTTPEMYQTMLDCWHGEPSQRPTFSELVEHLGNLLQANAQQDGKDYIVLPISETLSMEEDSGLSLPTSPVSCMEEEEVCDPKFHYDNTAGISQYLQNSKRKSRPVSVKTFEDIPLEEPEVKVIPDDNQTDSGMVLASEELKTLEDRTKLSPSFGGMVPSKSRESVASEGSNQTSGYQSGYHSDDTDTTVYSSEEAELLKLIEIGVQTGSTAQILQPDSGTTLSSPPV
Sequence of Met (P08581 25-1390): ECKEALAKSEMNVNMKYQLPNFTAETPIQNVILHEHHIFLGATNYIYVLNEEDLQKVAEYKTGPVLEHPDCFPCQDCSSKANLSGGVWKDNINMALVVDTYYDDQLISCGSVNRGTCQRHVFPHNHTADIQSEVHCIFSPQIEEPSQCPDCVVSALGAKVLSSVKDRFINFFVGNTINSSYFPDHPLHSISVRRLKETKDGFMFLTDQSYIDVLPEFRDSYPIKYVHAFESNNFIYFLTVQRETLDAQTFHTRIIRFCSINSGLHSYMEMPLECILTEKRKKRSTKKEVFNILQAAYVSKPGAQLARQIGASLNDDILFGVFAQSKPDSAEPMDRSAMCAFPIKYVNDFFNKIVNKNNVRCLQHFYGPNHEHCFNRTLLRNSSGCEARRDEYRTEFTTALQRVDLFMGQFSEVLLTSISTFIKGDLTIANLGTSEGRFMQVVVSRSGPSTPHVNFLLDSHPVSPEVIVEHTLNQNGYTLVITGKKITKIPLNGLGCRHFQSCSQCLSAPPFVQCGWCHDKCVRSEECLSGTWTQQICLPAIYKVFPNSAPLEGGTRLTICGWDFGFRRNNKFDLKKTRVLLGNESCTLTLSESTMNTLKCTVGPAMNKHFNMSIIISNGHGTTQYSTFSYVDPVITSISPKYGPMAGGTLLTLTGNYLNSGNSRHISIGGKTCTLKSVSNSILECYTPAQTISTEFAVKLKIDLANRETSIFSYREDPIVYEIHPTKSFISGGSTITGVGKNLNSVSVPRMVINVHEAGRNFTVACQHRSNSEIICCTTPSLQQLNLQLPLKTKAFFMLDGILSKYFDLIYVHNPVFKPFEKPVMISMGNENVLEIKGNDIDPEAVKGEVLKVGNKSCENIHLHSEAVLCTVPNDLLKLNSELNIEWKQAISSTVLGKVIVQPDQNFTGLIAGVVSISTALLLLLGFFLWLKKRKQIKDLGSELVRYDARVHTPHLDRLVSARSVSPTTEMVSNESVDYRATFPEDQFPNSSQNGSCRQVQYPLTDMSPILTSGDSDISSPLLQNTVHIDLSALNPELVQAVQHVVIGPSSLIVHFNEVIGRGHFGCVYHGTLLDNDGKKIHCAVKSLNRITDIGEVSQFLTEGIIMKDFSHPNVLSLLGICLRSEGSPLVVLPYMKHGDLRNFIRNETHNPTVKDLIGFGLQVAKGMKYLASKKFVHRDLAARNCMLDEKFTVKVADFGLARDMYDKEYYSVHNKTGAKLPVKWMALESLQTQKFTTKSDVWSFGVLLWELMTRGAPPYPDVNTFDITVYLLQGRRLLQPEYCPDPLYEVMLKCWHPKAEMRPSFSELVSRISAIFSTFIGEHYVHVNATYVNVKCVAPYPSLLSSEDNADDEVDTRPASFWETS

SMILES | IC50 (KDR) [nM] | IC50 (Mer) [nM] | IC50 (Met) [nM]
COc1cc2nccc(Oc3ccc(NC(=O)c4c5n(cc(-c6ccsc6)c4=O)CCOC5)cc3)c2nc1OC [Compound 301, N-[4-[(6,7-Dimethoxy-1,5-naphthyridin-4-yl)oxy]phenyl]-8-oxo-7-thiophen-3-yl-3,4-dihydro-1H-pyrido[2,1-c][1,4]oxazine-9-carboxamide] | 300 to 1000 | ≤ 100 | ≤ 100
COc1cc2nccc(Oc3ccc(NC(=O)c4c(C)ncc(-c5ccoc5)c4O)cc3F)c2nc1OC [Compound 122, N-[4-[(6,7-Dimethoxy-1,5-naphthyridin-4-yl)oxy]-3-fluorophenyl]-5-(furan-3-yl)-4-hydroxy-2-methylpyridine-3-carboxamide] | ≤ 100 | ≤ 100 | ≤ 100
COc1cc2nccc(Oc3ccc(NC(=O)c4c(C)ncc(-c5ccc(C)s5)c4O)cc3F)c2nc1OC [Compound 124, N-[4-[(6,7-Dimethoxy-1,5-naphthyridin-4-yl)oxy]-3-fluorophenyl]-4-hydroxy-2-methyl-5-(5-methylthiophen-2-yl)pyridine-3-carboxamide] | ≤ 100 | ≤ 100 | ≤ 100
COCc1nc(C)c(-c2ccnc(C)c2)c(O)c1C(=O)Nc1ccc(Oc2ccnc3cc(OC)c(OC)nc23)c(F)c1 [Compound 198, N-[4-[(6,7-Dimethoxy-1,5-naphthyridin-4-yl)oxy]-3-fluorophenyl]-4-hydroxy-2-(methoxymethyl)-6-methyl-5-(2-methylpyridin-4-yl)pyridine-3-carboxamide] | ≤ 100 | ≤ 100 | ≤ 100
COCc1nc(C)c(-c2ncccc2C)c(O)c1C(=O)Nc1ccc(Oc2ccnc3cc(OC)c(OC)nc23)c(F)c1 [Compound 196, N-[4-[(6,7-Dimethoxy-1,5-naphthyridin-4-yl)oxy]-3-fluorophenyl]-4-hydroxy-2-(methoxymethyl)-6-methyl-5-(3-methylpyridin-2-yl)pyridine-3-carboxamide] | ≤ 100 | ≤ 100 | ≤ 100
COc1cc2nccc(Oc3ccc(NC(=O)c4c(C)ncc(-c5ccc(C=O)o5)c4O)cc3F)c2nc1OC [Compound 121, N-[4-[(6,7-Dimethoxy-1,5-naphthyridin-4-yl)oxy]-3-fluorophenyl]-5-(5-formylfuran-2-yl)-4-hydroxy-2-methylpyridine-3-carboxamide] | ≤ 100 | ≤ 100 | 100 to 300
COc1cnc2c(Oc3ccc(NC(=O)c4c(C)n(C)c(C)c(-c5ccco5)c4=O)cc3)ccnc2c1 [Compound 161, 5-(Furan-2-yl)-N-[4-[(7-methoxy-1,5-naphthyridin-4-yl)oxy]phenyl]-1,2,6-trimethyl-4-oxopyridine-3-carboxamide] | 300 to 1000 | ≤ 100 | ≤ 100

Now from value to molecule:

IC50 (KDR) [nM] | IC50 (Mer) [nM] | IC50 (Met) [nM] | SMILES
300 to 1000 | ≤ 100 | ≤ 100 | COc1cc2nccc(Oc3ccc(NC(=O)c4c(C)n(CC(F)F)cc(-c5ccco5)c4=O)cc3F)c2nc1OC [Compound 275, 1-(2,2-Difluoroethyl)-N-[4-[(6,7-dimethoxy-1,5-naphthyridin-4-yl)oxy]-3-fluorophenyl]-5-(furan-2-yl)-2-methyl-4-oxopyridine-3-carboxamide]
300 to 1000 | 300 to 1000 | 300 to 1000 | COCCOc1cnc2c(Oc3ccc(NC(=O)c4c(C)n(C)c(C)c(-c5coc6ccccc56)c4=O)cc3F)ccnc2c1 [Compound 265, 5-(1-Benzofuran-3-yl)-N-[3-fluoro-4-[[7-(2-methoxyethoxy)-1,5-naphthyridin-4-yl]oxy]phenyl]-1,2,6-trimethyl-4-oxopyridine-3-carboxamide]
300 to 1000 | ≤ 100 | ≤ 100 | COc1cc2nccc(Oc3ccc(NC(=O)c4c5n(c(C)c(-c6ccoc6)c4=O)CCOC5)cc3F)c2nc1OC [Compound 308, N-[4-[(6,7-Dimethoxy-1,5-naphthyridin-4-yl)oxy]-3-fluorophenyl]-7-(furan-3-yl)-6-methyl-8-oxo-3,4-dihydro-1H-pyrido [2,1-c][1,4]oxazine-9-carboxamide]
≤ 100 | ≤ 100 | ≤ 100 | CCc1c(C(=O)Nc2ccc(Oc3ccnc4cc(OCCOC)c(OC)nc34)c(F)c2)c(=O)c(-c2ccco2)c(C)n1C [Compound 326, 2-Ethyl-N-[3-fluoro-4-[[6-methoxy-7-(2-methoxyethoxy)-1,5-naphthyridin-4-yl]oxy]phenyl]-5-(furan-2-yl)-1,6-dimethyl-4-oxopyridine-3-carboxamide]
